The values below are quoted from earlier work in patent publication US6713069B1, “Compositions and methods for detecting, preventing, and treating African Hemorrhagic Fever” (Board of Supervisors of Louisiana State University and …, priority 1996, dated 2004).

In this series the test system is HIV.

For enfuvirtide, the “inhibition of HIV infection and fusion” value was “inhibit HIV infection and fusion at very low dosages”.
